For orientation: Ki means the dissociation constant of the complex between target and ligand, obtained from inhibition or displacement. The term IC50 denotes the concentration that gives 50% inhibition.

The target in assay [1] is T1, fibrinogen receptor (glycoprotein IIb/IIIa) (Homo sapiens, UniProt P05106+P08514).
T1 construct: endogenous in cells
The assay is described as follows: Inhibition of binding of 125I-fibrinogen to its receptor on intact, gel-filtered human platelets. Conditions: inhibition of 125I-fibrinogen binding, stimulation with ADP (10 μM), read-out: Ki (μM), ADP-stimulated. The method, then: (§1) The compounds are tested in particular for their inhibitory action in blood platelet aggregation and the adhesion of fibrinogen to blood platelets. Gel-filtered blood platelets from human donor blood are used, which are activated with ADP or thrombin.
The inhibition of the binding of fibrinogen to its receptor (glycoprotein IIb/IIIa) by the compounds according to the invention is tested on intact, gel-filtered human platelets. The Ki value of the inhibition of binding of ^125 I-fibrinogen after stimulation with ADP (10 μM) is given. (References: J. S. Bennett and G. Vilaire, J. Clin. Invest. 64 (1979), 1393-1401; E. Kornecki et al., J. Biol. Chem. 256 (1981), 5695-5701; G. A. Marguerie et al., J. Biol. Chem. 254 (1979), 5357-5363; G. A. Marguerie et al., J. Biol. Chem. 255 (1980), 154-161).

For assay [2], the system named is gel-filtered human platelets. The assay is described as follows: Inhibition of aggregation of gel-filtered human platelets after ADP or thrombin stimulation. The format is cell-based. As for the experimental part:
as §1
As a functional test, the inhibition of aggregation of gel-filtered human platelets by the compounds according to the invention is measured after ADP or thrombin stimulation. The IC50 value of the inhibition is given.

Where two headings read alike, the source gives them in different places.

T1 sequence (P08514 32-887 limits assumed): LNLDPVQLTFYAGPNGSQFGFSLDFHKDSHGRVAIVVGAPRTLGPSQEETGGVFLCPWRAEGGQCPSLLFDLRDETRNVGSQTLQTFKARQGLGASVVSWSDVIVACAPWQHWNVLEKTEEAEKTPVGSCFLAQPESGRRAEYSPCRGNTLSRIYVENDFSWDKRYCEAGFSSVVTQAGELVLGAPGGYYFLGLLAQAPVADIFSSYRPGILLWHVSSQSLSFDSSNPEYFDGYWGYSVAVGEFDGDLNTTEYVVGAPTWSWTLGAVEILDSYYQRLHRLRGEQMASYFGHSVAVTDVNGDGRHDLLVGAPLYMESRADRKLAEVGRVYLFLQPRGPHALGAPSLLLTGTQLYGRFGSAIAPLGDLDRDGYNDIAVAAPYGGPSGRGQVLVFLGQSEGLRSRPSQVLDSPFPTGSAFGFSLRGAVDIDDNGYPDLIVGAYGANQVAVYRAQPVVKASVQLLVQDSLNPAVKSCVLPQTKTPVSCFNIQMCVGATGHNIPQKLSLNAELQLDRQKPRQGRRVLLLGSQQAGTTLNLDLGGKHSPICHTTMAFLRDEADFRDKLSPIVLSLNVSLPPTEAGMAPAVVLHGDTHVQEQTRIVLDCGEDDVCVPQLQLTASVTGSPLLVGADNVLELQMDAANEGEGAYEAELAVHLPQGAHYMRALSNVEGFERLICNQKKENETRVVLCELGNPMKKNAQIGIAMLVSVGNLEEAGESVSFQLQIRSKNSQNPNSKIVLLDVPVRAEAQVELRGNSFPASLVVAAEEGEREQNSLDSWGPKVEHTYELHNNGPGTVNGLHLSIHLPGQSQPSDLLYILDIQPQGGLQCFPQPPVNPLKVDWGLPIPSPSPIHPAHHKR
T1 sequence (P08514 891-1039 partner limits assumed): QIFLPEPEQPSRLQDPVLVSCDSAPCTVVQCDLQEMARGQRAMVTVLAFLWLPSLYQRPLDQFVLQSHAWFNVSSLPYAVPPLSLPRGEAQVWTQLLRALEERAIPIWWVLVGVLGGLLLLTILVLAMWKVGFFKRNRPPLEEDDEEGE
T1 sequence (P05106 27-788): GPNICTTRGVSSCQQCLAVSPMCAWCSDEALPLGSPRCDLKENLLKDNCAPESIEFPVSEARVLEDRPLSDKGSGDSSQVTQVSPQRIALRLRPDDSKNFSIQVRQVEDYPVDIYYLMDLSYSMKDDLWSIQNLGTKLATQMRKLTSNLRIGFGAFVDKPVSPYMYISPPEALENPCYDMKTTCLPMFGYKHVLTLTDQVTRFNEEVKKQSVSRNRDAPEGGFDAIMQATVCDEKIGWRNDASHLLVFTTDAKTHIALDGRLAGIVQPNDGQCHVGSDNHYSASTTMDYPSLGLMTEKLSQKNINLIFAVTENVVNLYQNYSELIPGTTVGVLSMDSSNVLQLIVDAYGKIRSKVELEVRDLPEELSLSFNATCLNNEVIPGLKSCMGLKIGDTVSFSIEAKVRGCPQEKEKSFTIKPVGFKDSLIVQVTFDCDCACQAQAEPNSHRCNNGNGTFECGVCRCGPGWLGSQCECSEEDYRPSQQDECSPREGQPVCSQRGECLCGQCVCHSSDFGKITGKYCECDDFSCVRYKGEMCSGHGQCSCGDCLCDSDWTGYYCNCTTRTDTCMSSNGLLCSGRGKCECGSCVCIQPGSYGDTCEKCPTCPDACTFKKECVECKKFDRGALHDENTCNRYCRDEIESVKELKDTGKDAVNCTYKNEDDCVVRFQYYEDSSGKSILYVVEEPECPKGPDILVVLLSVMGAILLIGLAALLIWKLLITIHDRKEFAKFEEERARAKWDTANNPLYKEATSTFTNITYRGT

For `N=C(N)Nc1cccc(C2NC(=O)N(CC(=O)N[C@@H](CC(=O)O)C(=O)N[C@H](C(=O)O)c3ccccc3)C2=O)c1` (stereo partly drawn) [Example 2], in assay [1], the Ki was 2 µM. In addition, the IC50 amounted to 6000 nM in assay [2] (Platelet, inhibition of aggregation of gel-filtered human platelets, ADP stimulation, read-out: ADP-stimulated IC50) and 3000 nM in assay [2] (Platelet; inhibition of aggregation of gel-filtered human platelets, thrombin stimulation; read-out: Thrombin-stimulated IC50 9 μM)).

As for `N=C(N)Nc1ccc(C2NC(=O)N(CC(=O)N[C@@H](CC(=O)O)C(=O)N[C@H](C(=O)O)c3ccccc3)C2=O)cc1` (stereo partly drawn) [Example 1, (5-(4-Guanidinophenyl)-2,4-dioxoimidazolin-3-yl)acetyl-L-aspartyl-L-phenylglycine], in assay [1], the Ki stood at 0.03 µM. Moreover, the IC50 in assay [2] (inhibition of aggregation of gel-filtered human platelets, ADP stimulation, read-out: ADP-stimulated IC50) came to 200 nM; in assay [2] (inhibition of aggregation of gel-filtered human platelets, thrombin stimulation; read-out: Thrombin-stimulated IC50 9 μM)), 70 nM.

These data come from US5424293A (Cassella AG, priority 1992, dated 1995).
